Results on 15 molecules are retold here after US20130196986A1 (priority 2010, published 2013).

What is called IC50 is the concentration that inhibits the measured activity by half.

In the assay the target is T1, P2X7 receptor (Homo sapiens, UniProt Q99572).
T1 construct: stably expressing the full length P2X7 receptor; expressed in transfected cells
T1 sequence (Q99572 1-595): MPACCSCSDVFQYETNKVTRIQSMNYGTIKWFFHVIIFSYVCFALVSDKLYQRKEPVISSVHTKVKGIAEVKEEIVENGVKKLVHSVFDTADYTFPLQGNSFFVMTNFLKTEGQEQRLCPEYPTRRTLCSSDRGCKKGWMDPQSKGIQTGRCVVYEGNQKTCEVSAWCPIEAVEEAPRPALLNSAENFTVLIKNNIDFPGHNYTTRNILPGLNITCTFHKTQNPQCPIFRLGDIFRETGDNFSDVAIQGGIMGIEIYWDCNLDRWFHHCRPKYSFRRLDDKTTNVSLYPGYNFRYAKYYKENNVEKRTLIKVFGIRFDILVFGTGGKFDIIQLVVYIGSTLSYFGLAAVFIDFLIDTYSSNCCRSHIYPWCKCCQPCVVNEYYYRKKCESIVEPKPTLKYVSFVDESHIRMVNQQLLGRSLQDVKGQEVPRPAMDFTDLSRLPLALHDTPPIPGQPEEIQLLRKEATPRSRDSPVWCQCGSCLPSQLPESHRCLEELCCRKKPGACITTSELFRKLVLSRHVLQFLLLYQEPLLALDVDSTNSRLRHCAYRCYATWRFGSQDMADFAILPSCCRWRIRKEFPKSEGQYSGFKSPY
Put plainly: Ca++ flux assay (FLIPR) in P2X7-HEK-293 cell line stably expressing the full length P2X7 receptor, Bz-ATP activation. The assay is classed as cell-based. The conditions noted are these: P2X7-HEK-293 cells; agonist Bz-ATP; fluorescence as total area over 90 seconds; read-out: P2X7 Ca Flux hu IC50. How it is done:
The ability of Triazolopyrazinone Compounds to inhibit P2X7 function can be determined in Ca^++ flux assay using a P2X7-HEK-293 cell line stably expressing the full length P2X7 receptor. The assay protocol is as described in Cheewatrakoolpong et al., Biochem. Biophys. Res. Commun. 332:17-27 (2005) with minor modification, and is as summarized hereinafter. Briefly, cells were plated in poly-D-lysine-coated wells, and incubated at 37° C. for 24 hours. Cells were then incubated for 1 hour with a loading buffer which contains a dye sensitive to changes in Ca^++ concentration (lx Calcium Plus no wash dye from Molecular Devices, Sunnyvale, Calif.). The test compounds were added to the wells in the dye loading step. Plates containing the wells were transferred to a Fluorometric Imaging Plate Reader (Molecular Devices, Sunnyvale, Calif.). The cells were activated by the addition of the P2X7 receptor agonist 2′(3) —O-(4-benzoylbenzoyl)adenosine 5′-triphosphate (Bz-ATP from Sigma-Aldrich, St. Louis, Mo.), and the fluorescence was monitored for 90 seconds. The fluorescent signal was determined as the total area over the 90 second run time. Using this protocol, representative Triazolopyrazinone Compounds, compounds 1471 were tested. Tables 3 to 6 show the concentration at which 50% of the maximum response in the Ca^++ was inhibited (IC50) for each of the test compounds.
Consider `Cc1c(Cl)cccc1-n1ccn2c(SCc3ccccc3Oc3ccccc3)nnc2c1=O` [Compound 30, 7-(3-chloro-2-methylphenyl)-3-(2-phenoxybenzylthio)-[1,2,4]triazolo[4,3-a]pyrazin-8(7H)-one], for which the IC50 is 67 nM.

For the molecule `Cc1c(Cl)cccc1-n1ccn2c(SCc3ccccc3N3CCN(C(=O)OC(C)(C)C)CC3)nnc2c1=O` [Compound 31, tert-butyl 4-(2-((7-(3-chloro-2-methylphenyl)-8-oxo-7,8-dihydro-[1,2,4]triazolo[4,3-a]pyrazin-3-ylthio)methyl)phenyl)piperazine-1-carboxylate], the IC50 was found to be 1170 nM.

Regarding `Cc1c(Cl)cccc1-n1ccn2c(SCc3ccccc3N3CCOCC3)nnc2c1=O` [Compound 32, 7-(3-chloro-2-methylphenyl)-3-(2-morpholinobenzylthio)-[1,2,4]triazolo[4,3-a]pyrazin-8(7H)-one], the IC50 stood at 553 nM.

`[2H]c1c([2H])c([2H])c(CSc2nnc3c(=O)n(-c4cccc(Cl)c4C)ccn23)c([2H])c1[2H]` [Compound 33]: the IC50 is 85.7 nM.

As to `[2H]c1c([2H])c([2H])c(C([2H])([2H])Sc2nnc3c(=O)n(-c4cccc(Cl)c4C)ccn23)c([2H])c1[2H]` [Compound 34], the IC50 amounted to 148 nM.

Consider `CCc1ccccc1CSc1nnc2c(=O)n(-c3cccc(Cl)c3C)ccn12` [Compound 35, 7-(3-chloro-2-methylphenyl)-3-(2-ethylbenzylthio)-[1,2,4]triazolo[4,3-a]pyrazin-8(7H)-one], for which the IC50 stood at 213 nM.

For the molecule `Cc1c(Cl)cccc1-n1ccn2c(SCc3ccccc3-c3cccnc3)nnc2c1=O` [Compound 36, 7-(3-chloro-2-methylphenyl)-3-(2-(pyridin-3-yl)benzytthio)-[1,2,4]triazolo[4,3-a]pyrazin-8(7H)-one], the half-inhibitory concentration (IC50) turned out to be 147 nM.

Regarding `Cc1c(Cl)cccc1-n1ccn2c(SCc3ccccc3-c3ccco3)nnc2c1=O` [Compound 37, 7-(3-chloro-2-methylphenyl)-3-(2-(furan-2-yl)benzylthio)-[1,2,4]triazolo[4,3-a]pyrazin-8(7H)-one], the IC50 stood at 97.4 nM.

`Cc1c(Cl)cccc1-n1ccn2c(SCc3ccccc3Cn3cncn3)nnc2c1=O` [Compound 38, 3-(2-((1H-1,2,4-triazol-1-yl)methyl)benzylthio)-7-(3-chloro-2-methylphenyl)-[1,2,4]triazolo[4,3-a]pyrazin-8(7H)-one]: the IC50 amounted to 1440 nM.

Take `Cc1c(Cl)cccc1-n1ccn2c(SCc3ccccc3CN3CCOCC3)nnc2c1=O` [Compound 39, 7-(3-chloro-2-methylphenyl)-3-(2-(rnorpholinornethyl)benzylthio)-[1,2,4]triazolo[4,3-a]pyrazin-8(7H)-one]: the IC50 was determined as 636 nM.

`Cc1c(Cl)cccc1-n1ccn2c(SCc3ccccc3-c3cccs3)nnc2c1=O` [Compound 40, 7-(3-chloro-2-methylphenyl)-3-(2-(thiophen-2-yl)benzylthio)-[1,2,4]triazolo[4,3-a]pyrazin-8(7H)-one]: the IC50 worked out at 45.8 nM.

With `Cc1c(Cl)cccc1-n1ccn2c(SCc3ccccc3C(C)C)nnc2c1=O` [Compound 41, 7-(3-chloro-2-methylphenyl)-3-(2-isopropylbenzylthio)-[1,2,4]triazolo[4,3-a]pyrazin-8(7H)-one], the IC50 was found to be 372 nM.

Turning to `Cc1c(Cl)cccc1-n1ccn2c(SCc3ccccc3COc3ccccc3)nnc2c1=O` [Compound 42, 7-(3-chloro-2-methylphenyl)-3-(2-(phenoxymethyl)benzylthio)-[1,2,4]triazolo[4,3-a]pyrazin-8(7H)-one], the IC50 turned out to be 170 nM.

Take `Cc1c(Cl)cccc1-n1ccn2c(SCc3ccccc3CS(=O)(=O)c3ccccc3)nnc2c1=O` [Compound 43, 7-(3-chloro-2-methylphenyl)-3-(2-(phenylsulfonylmethyl)benzylthio)-[1,2,4]triazolo[4,3-a]pyrazin-8(7H)-one]: the half-maximal inhibitory concentration (IC50) worked out at 233 nM.

For `Cc1c(Cl)cccc1-n1ccn2c(SCc3ccccc3CCc3ccccc3)nnc2c1=O` [Compound 44], the IC50 amounted to 553 nM.
